# Earlier results as cited in article PMC4369286 (Chemistry Central Journal, 2015).
# Read-outs that look alike come from different tables or passages of the source.
# Key:
# [1] = value of the pure solvent
# [2] = for E (excess molar refractivity descriptor): known values used for comparison
# [3] = in several of the organic solvents studied
# [4] = design: method as in earlier work; details: direct partition, monomer
# [5] = known value given as comparison
smiles,measurement,setting,value
C1CCCCC1 [cyclohexane],"Kamlet-Taft solvent hydrogen bond basicity, β",[1],0.00
CCCOC(C)=O [propyl acetate],"Kamlet-Taft solvent hydrogen bond basicity, β",[1],0.40
CCOC(=O)/C=C/c1ccccc1 [ethyl cinnamate],E (excess molar refractivity descriptor),[2],1.102
CC#N [acetonitrile],"Kamlet-Taft solvent hydrogen bond basicity, β",[1],0.40
CC(=O)Oc1ccccc1C(=O)O [aspirin],solubility in organic solvents,[3],exceeding 1 molar
O=[N+]([O-])c1ccccc1 [nitrobenzene],"Kamlet-Taft solvent hydrogen bond basicity, β",[1],0.30
OCC(F)(F)F [trifluoroethanol],"Kamlet-Taft solvent hydrogen bond basicity, β",[1],0.00
CC(C)=O [propanone],"Kamlet-Taft solvent hydrogen bond basicity, β",[1],0.43
CCOCC [diethyl ether],"Kamlet-Taft solvent hydrogen bond basicity, β",[1],0.47
"O=C(O)c1ccccc1 [Benzoic acid, benzoic acid]",Kdimer (dimerization constant),in benzene,590
same,Kdimer (dimerization constant),in cyclohexane,11300
same,Kdimer (dimerization constant),in tetrachloromethane,5010
same,S (dipolarity/polarity descriptor),[2]; [5],0.90
same,V (McGowan characteristic volume descriptor),[2]; [5],0.9317
same,E (excess molar refractivity descriptor),[2],0.73
same,E (excess molar refractivity descriptor),[2]; listed as benzoic acid,0.730
O=C(O)/C=C/c1ccccc1 [trans-cinnamic acid],Log Ps (water-solvent partition coefficient),[4]; solvent Cyclohexane,−0.25
same,Log Ps (water-solvent partition coefficient),"[4]; solvent Diethyl ether, wet",1.92
same,Log Ps (water-solvent partition coefficient),"[4]; solvent Octan-1-ol, wet",2.13
same,Log Ps (water-solvent partition coefficient),[4]; solvent Tetrachloromethane,0.40
same,Log Ps (water-solvent partition coefficient),[4]; solvent Trichloromethane,1.20
CCOC(=O)c1ccccc1 [ethyl benzoate],E (excess molar refractivity descriptor),[2],0.689
CO [methanol],"Kamlet-Taft solvent hydrogen bond basicity, β",[1],0.66
ClC(Cl)Cl [trichloromethane],"Kamlet-Taft solvent hydrogen bond basicity, β",[1],0.10
